This assay deals with bovine serum albumin (BSA) (Bos taurus, UniProt P02769). The experiment in a line: MALDI-TOF mass spectra of BSA with surfactant, intact and acid-degraded. Particulars: for BSA MALDI signal after surfactant degradation: degraded about 30 minutes in 1% TFA at pH 2.5. The text has this:
The various embodiments of non-ionic acid-labile surfactants and methods of use described herein may be better understood when read in conjunction with the following representative examples. The following examples are included for purposes of illustration and not limitation. MALDI-TOF spectra were acquired using an ABI 4800 mass spectrometer in the linear mode.
Referring to FIGS. 2A-C, 0.1% N-[2,2-Bis(pentyloxy)propan-1-aminocarbonyl]-β-maltosylamine was mixed with bovine serum albumin (BSA) in water. The samples were spotted onto a MALDI pre-spotted target with CHCA MALDI matrix using C8 reversed phase tips. FIG. 2A includes a mass spectra of 20 pmol BSA in water. BSA was detected at m/z 22344, m/z 33480, and m/z 66854. FIG. 2B includes a mass spectra of 20 pmol BSA dissolved in 0.1% N-[2,2-Bis(pentyloxy)propan-1-aminocarbonyl]-β-maltosylamine. […] FIG. 2C includes a mass spectra of 20 pmol BSA in 0.1% N-[2,2-Bis(pentyloxy)propan-1-aminocarbonyl]-β-maltosylamine after being degraded for about thirty (30) minutes in 1% TFA at pH 2.5. BSA was detected at m/z 22212, m/z 33309, and m/z 66460.
Referring to FIGS. 3A-C, 1% N-[2,2-Bis(pentyloxy)propan-1-aminocarbonyl]-β-maltosylamine was mixed with bovine serum albumin (BSA) in water. The samples were spotted onto a MALDI pre-spotted target with CHCA MALDI matrix using C8 reversed phase tips. FIG. 3A includes a mass spectra of 20 pmol BSA in water. BSA was detected at m/z 22344, m/z 33480, and m/z 66854. FIG. 3B includes a mass spectra of 20 pmol BSA dissolved in 1% N-[2,2-Bis(pentyloxy)propan-1-aminocarbonyl]-β-maltosylamine. […] FIG. 3C includes a mass spectra of 20 pmol BSA in 1% N-[2,2-Bis(pentyloxy)propan-1-aminocarbonyl]-β-maltosylamine after being degraded for about thirty (30) minutes in 1% TFA at pH 2.5. BSA was detected at m/z 22260, m/z 33377, and m/z 66527.
Referring to FIGS. 5A-C, 0.1% N-[2,2-Bis(hexyloxy)propan-1-aminocarbonyl]-β-maltosylamine was mixed with BSA. The samples were spotted onto a MALDI pre-spotted target with CHCA MALDI matrix using C8 reversed phase tips. FIG. 5A includes a mass spectra of 20 pmol BSA in water. BSA was detected at m/z 22344, m/z 33480, and m/z 66854. FIG. 5B includes a mass spectra of 20 pmol BSA dissolved in 0.1% N-[2,2-Bis(hexyloxy)propan-1-aminocarbonyl]-β-maltosylamine. […] FIG. 5C includes a mass spectra of 20 pmol BSA in 0.1% N-[2,2-Bis(phexyloxy)propan-1-aminocarbonyl]-β-maltosylamine after being degraded for about thirty (30) minutes in 1% TFA at pH 2.5. BSA was detected at m/z 22197, m/z 33284, and m/z 66405.

Setting [1] is: 20 pmol BSA dissolved in 0.1% surfactant.

Each structure is given as a SMILES string.

Chain of bovine serum albumin (BSA) (P02769 25-607): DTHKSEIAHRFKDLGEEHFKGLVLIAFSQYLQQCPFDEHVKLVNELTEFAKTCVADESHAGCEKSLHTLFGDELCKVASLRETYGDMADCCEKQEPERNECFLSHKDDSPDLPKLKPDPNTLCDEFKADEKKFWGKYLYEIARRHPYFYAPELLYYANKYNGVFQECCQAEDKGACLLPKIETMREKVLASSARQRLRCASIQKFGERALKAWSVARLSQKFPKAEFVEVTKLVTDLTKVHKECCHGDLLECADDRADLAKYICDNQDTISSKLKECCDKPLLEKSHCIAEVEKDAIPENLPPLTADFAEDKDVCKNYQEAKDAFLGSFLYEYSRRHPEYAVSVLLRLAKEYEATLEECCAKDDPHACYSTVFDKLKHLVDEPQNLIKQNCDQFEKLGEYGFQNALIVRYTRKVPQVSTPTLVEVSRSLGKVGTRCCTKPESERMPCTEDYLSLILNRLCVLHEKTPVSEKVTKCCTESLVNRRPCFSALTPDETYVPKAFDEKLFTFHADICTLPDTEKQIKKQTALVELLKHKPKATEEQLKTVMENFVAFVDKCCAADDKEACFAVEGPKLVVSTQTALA

Consider `CCCCCCOC(C)(CNC(=O)NC1OC(CO)C(OC2OC(CO)C(O)C(O)C2O)C(O)C1O)OCCCCCC` (stereo not drawn) [N-[2,2-Bis(hexyloxy)propan-1-aminocarbonyl]-β-maltosylamine], for which the “BSA MALDI signal, intact surfactant” value under setting [1] was “no signal from the BSA was detected”. The “BSA MALDI signal after surfactant degradation” value (0.1% surfactant) is given as “a signal from the BSA was detected when the surfactant was degraded”.

On to `CCCCCOC(C)(CNC(=O)NC1OC(CO)C(OC2OC(CO)C(O)C(O)C2O)C(O)C1O)OCCCCC` (stereo not drawn) [N-[2,2-Bis(pentyloxy)propan-1-aminocarbonyl]-β-maltosylamine], for which the “BSA MALDI signal, intact surfactant” value is, setting by setting: under setting [1], “no signal from the BSA was detected”; (20 pmol BSA dissolved in 1% surfactant) “no signal from the BSA was detected”. Moreover, the “BSA MALDI signal after surfactant degradation” value by setting is: (0.1% surfactant) “a signal from the BSA was detected when the surfactant was degraded”; (1% surfactant) “a signal from the BSA was detected when the surfactant was degraded”.

Values taken from patent US9206226B2, “Non-ionic acid-labile surfactants and methods of use” (Protea Biosciences, Inc., priority 2011, dated 2015).
